Consider one compound from ChEMBL document CHEMBL4421728, “Bach1 Inhibitors in Combination with Nrf2 Activators and Pharmaceutical Compositions Thereof” (2017).

SMILES strings stand for the structures.

The target in assay [1] is T1, Transcription regulator protein BACH1 (Homo sapiens) (UniProt O14867).
T1 sequence (whole entry): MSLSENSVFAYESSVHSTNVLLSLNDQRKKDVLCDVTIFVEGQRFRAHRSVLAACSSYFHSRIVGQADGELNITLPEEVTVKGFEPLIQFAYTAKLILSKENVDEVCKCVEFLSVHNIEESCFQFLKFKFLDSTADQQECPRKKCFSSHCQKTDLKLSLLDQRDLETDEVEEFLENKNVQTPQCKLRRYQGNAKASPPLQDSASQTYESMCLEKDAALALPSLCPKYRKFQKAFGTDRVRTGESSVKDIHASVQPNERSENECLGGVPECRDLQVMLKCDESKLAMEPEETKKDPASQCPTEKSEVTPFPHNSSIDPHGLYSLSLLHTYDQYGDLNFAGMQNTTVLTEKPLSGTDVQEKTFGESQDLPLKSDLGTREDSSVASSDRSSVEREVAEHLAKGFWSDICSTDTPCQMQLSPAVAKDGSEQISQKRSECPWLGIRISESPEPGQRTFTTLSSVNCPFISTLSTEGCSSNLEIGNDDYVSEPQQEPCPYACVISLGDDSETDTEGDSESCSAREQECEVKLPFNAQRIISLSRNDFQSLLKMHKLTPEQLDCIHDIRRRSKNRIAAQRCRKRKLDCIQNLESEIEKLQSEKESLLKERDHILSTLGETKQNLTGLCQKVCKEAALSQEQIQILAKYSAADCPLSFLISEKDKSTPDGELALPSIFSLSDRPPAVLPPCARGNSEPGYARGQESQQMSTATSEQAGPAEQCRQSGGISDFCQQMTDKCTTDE
Description: Inhibition of Bach1 in normal human lung fibroblasts assessed as induction of HMOX protein expression at 1.25 uM incubated for 16 to 18 hrs in presence of 0.019 uM Nrf2 activator Bardoxolone methyl by immunostaining relative to control.

The target in assay [2] is T1, Transcription regulator protein BACH1 (Homo sapiens). Description: Inhibition of Bach1 in normal human lung fibroblasts assessed as induction of HMOX protein expression at 0.312 uM incubated for 16 to 18 hrs in presence of 0.0097 uM Nrf2 activator Bardoxolone methyl by immunostaining relative to control.
For assay [3] the target is unchanged. The assay can be described thus: Inhibition of Bach1 in normal human lung fibroblasts assessed as induction of HMOX protein expression at 5 uM incubated for 16 to 18 hrs by immunostaining relative to control.
Assay [4] has the same target. The assay can be described thus: Inhibition of Bach1 in normal human lung fibroblasts assessed as induction of HMOX protein expression at 0.039 uM incubated for 16 to 18 hrs in presence of 0.078 uM Nrf2 activator Bardoxolone methyl by immunostaining relative to control.
Assay [5] has the same target. The assay can be described thus: Inhibition of Bach1 in normal human lung fibroblasts assessed as induction of HMOX protein expression at 0.156 uM incubated for 16 to 18 hrs in presence of 0.156 uM Nrf2 activator Bardoxolone methyl by immunostaining relative to control.
For assay [6] the target is unchanged. The assay can be described thus: Inhibition of Bach1 in normal human lung fibroblasts assessed as induction of HMOX protein expression at 0.039 uM incubated for 16 to 18 hrs in presence of 0.156 uM Nrf2 activator Bardoxolone methyl by immunostaining relative to control.
Assay [7] has the same target. The assay can be described thus: Inhibition of Bach1 in normal human lung fibroblasts assessed as induction of HMOX protein expression at 1.25 uM incubated for 16 to 18 hrs in presence of 0.312 uM Nrf2 activator Bardoxolone methyl by immunostaining relative to control.
Assay [8] shares this target. Description: Inhibition of Bach1 in normal human lung fibroblasts assessed as induction of HMOX protein expression at 0.078 uM incubated for 16 to 18 hrs in presence of 0.019 uM Nrf2 activator Bardoxolone methyl by immunostaining relative to control.
The target is the same in assay [9]. The assay can be described thus: Inhibition of Bach1 in normal human lung fibroblasts assessed as induction of HMOX protein expression at 0.078 uM incubated for 16 to 18 hrs in presence of 0.156 uM Nrf2 activator Bardoxolone methyl by immunostaining relative to control.
The target is the same in assay [10]. Description: Inhibition of Bach1 in normal human lung fibroblasts assessed as induction of HMOX protein expression at 0.019 uM incubated for 16 to 18 hrs in presence of 0.156 uM Nrf2 activator Bardoxolone methyl by immunostaining relative to control.
The target is the same in assay [11]. The assay can be described thus: Inhibition of Bach1 in normal human lung fibroblasts assessed as induction of HMOX protein expression at 0.625 uM incubated for 16 to 18 hrs in presence of 0.078 uM Nrf2 activator Bardoxolone methyl by immunostaining relative to control.
For assay [12] the target is unchanged. Description: Inhibition of Bach1 in normal human lung fibroblasts assessed as induction of HMOX protein expression at 0.039 uM incubated for 16 to 18 hrs in presence of 0.019 uM Nrf2 activator Bardoxolone methyl by immunostaining relative to control.
Assay [13] has the same target. The assay can be described thus: Inhibition of Bach1 in normal human lung fibroblasts assessed as induction of HMOX protein expression at 0.039 uM incubated for 16 to 18 hrs in presence of 0.0024 uM Nrf2 activator Bardoxolone methyl by immunostaining relative to control.
For assay [14] the target is unchanged. Description: Inhibition of Bach1 in normal human lung fibroblasts assessed as induction of HMOX protein expression at 0.019 uM incubated for 16 to 18 hrs in presence of 0.0097 uM Nrf2 activator Bardoxolone methyl by immunostaining relative to control.
For assay [15] the target is unchanged. The assay can be described thus: Inhibition of Bach1 in normal human lung fibroblasts assessed as induction of HMOX protein expression at 1.25 uM incubated for 16 to 18 hrs in presence of 0.0097 uM Nrf2 activator Bardoxolone methyl by immunostaining relative to control.
The target is the same in assay [16]. The assay can be described thus: Inhibition of Bach1 in normal human lung fibroblasts assessed as induction of HMOX protein expression at 0.625 uM incubated for 16 to 18 hrs in presence of 0.312 uM Nrf2 activator Bardoxolone methyl by immunostaining relative to control.
For assay [17] the target is unchanged. The assay can be described thus: Inhibition of Bach1 in normal human lung fibroblasts assessed as induction of HMOX protein expression at 0.156 uM incubated for 16 to 18 hrs in presence of 0.0048 uM Nrf2 activator Bardoxolone methyl by immunostaining relative to control.
The target is the same in assay [18]. The assay can be described thus: Inhibition of Bach1 in normal human lung fibroblasts assessed as induction of HMOX protein expression at 0.625 uM incubated for 16 to 18 hrs in presence of 0.019 uM Nrf2 activator Bardoxolone methyl by immunostaining relative to control.
Assay [19] has the same target. The assay can be described thus: Inhibition of Bach1 in normal human lung fibroblasts assessed as induction of HMOX protein expression at 2.5 uM incubated for 16 to 18 hrs in presence of 0.0024 uM Nrf2 activator Bardoxolone methyl by immunostaining relative to control.
Assay [20] shares this target. The assay can be described thus: Inhibition of Bach1 in normal human lung fibroblasts assessed as induction of HMOX protein expression at 2.5 uM incubated for 16 to 18 hrs in presence of 0.019 uM Nrf2 activator Bardoxolone methyl by immunostaining relative to control.

On to `CNC(=O)c1ccc2c(c1)nc(Nc1nc3ccc(OC(F)(F)F)cc3s1)n2C`, for which the fold change (FC) in assay [1] is 15.9; in assay [2], 16.4; in assay [3], 17.7; in assay [4], 18.7; in assay [5], 18.3; in assay [6], 17.2. In addition, the fold change (FC) in [7] was determined as 10.5; in [8], 13.2; in [9], 17.9; in assay [10], 22.9; in assay [11], 18.6; in [12] it was 8.57. Moreover, the fold change (FC) in [13] was 2.32; in assay [14] it was 7.14; in assay [15] it was 16.5; in assay [16], 12.7; in [17], 8.04; in [18] it was 16.8. Further, the fold change (FC) in [19] was determined as 18.8; in [20], 17.
